The source of these data is patent US20040052845A1, “Hydrogel-driven drug dosage form” (priority 2003, published 2004).

Structures can show the parent of a compound that is named as a salt.

The series can be described thus: Aqueous solubility of the drug.

The compound “4-[3-[4-(2-methylimidazol-1-yl) phenylthio] phenyl]-3,4,5,6-tetrahydro-2H-pyran-4-carboxamide hemifumarate [Drug 3]” came in with a solubility (at pH 4) of 3.7 mgA/mL. Consider `CN[C@H]1CC[C@@H](c2ccc(Cl)c(Cl)c2)c2ccccc21` [Drug 2, sertraline HCl], for which, where the note is “at pH 7”, the solubility turned out to be 0.2 mg/mL.
